From patent publication US20200369674A1, “ANTI-PAIN COMPOUND AND PREPARATION METHOD THEREOF” (LUNAN PHARMACEUTICAL GROUP CORPORATION, priority 2017, published 2020)

Assays:
ICR mice [1] = assay: Xylene-induced mouse ear swelling test (Effect Example 4); type: in vivo; conditions: Mus musculus, po, 2 h; 1 mg/kg intragastric, 50 uL xylene two hours after administration; read-out: Inhibition rate (%)
Method: (§1) ICR mice, 18-22 g, half of them being male and the other half being female, provided by the Department of Laboratory Animals, Peking University (License No.: SCXK (Beijing) 2016-0010).
ICR mice were randomly grouped, 8 mice per group, half of them being male and the other half being female. Vehicle control group (double-distilled water) and groups for samples to be tested (the compounds and doses thereof were shown in Table 4). All drugs were dissolved in double-distilled water immediately before administration, and given by intragastric administration at predetermined doses. Two hours after administration, 50 uL of xylene was smeared evenly on the inner and outer sides of right ear of mouse. After 30 minutes, the left and right ears of mouse were cut, and circular ear pieces of the same size were punched at the same position on the left and right ears, and weighed. The ear swelling inhibition rate of compound in mice was calculated according to the formula.
Inhibition rate %=(degree of ear swelling in vehicle control group−degree of ear swelling in test group)/degree of ear swelling in vehicle control group×100

CCI rats = assay: Thermal stimulation paw withdrawal latency (PWL) in CCI rats; type: in vivo, SD rats; conditions: for PWL: hot plate 50.5° C., cut-off 14s, mean±SEM
Method: SD rats, body weight 180 g-220 g, half of them being male and the other half being female, provided by the Department of Laboratory Animals, Peking University. The rats were raised in a standard environment with temperature of 22±0.5° C. and relative humidity of 55±5%, 12 h/12 h light-dark cycle, and fed with standard feed.
Rat was anesthetized with pentobarbital sodium (60 mg/kg, i.p.), the right hind limb was surgically shaved, fixed in the prone position, a longitudinal incision was made along the middle of the right hind limb of the rat, the muscle was bluntly separated, the sciatic nerve was exposed, and the sciatic nerve bifurcate proximal end was loosely ligated with 4-0 silk suture for 4 times, with an interval of about 1 mm each time, in which the degree of tightness was suitable when it was observed that the right hind leg was slightly shaken. After ligation, the muscle and skin were sutured in sequence. For the sham-operated group, the sciatic nerve was only exposed, but not ligated. The success of modeling was determined by observing whether the hind limb of the rat's operation side was closed, slightly valgus and often vacated, and by measuring the mechanical stimulation paw withdrawal threshold and the thermal stimulation paw withdrawal latency of the rat.
Before surgery, the mechanical stimulation paw withdrawal thresholds and the thermal stimulation paw withdrawal latencies in the rats were determined, and the rats were grouped as: sham operation group (sham), vehicle group (double-distilled water, i.g.), DXL-A-22 group (2 mg/kg, i.g.), DXL-A-24 group (1 mg/kg, i.g.), and Gabapentin group (100 mg/kg, i.g.). All compounds and drugs were dissolved in double-distilled water, and given by intragastric administration at 1 mL/100 g. From the first day after surgery, the administration was carried out every day, and the mechanical stimulation paw withdrawal threshold and the thermal stimulation paw withdrawal latency were measured 2 hours after administration.
The thermal stimulation paw withdrawal latency (PWL) was measured by a hot plate method. The measurement was carried out on the days 5, 7 and 14 after operation. The temperature of the hot plate was 50.5° C. Timing started when the rat was placed on the hot plate, and stopped when the shaking and foot licking responses of the rat appeared, and this time was the PWL of the rat. The hot plate cut-off time was 14s, and the percentage of analgesia (i.e., MPE %) was calculated according to formula (3):
MPE %=(PWL of test group−PWL of vehicle group)/(cut-off time−PWL of vehicle group)×100 (3)

ICR mice [2] = assay: Xylene-induced ear swelling test in mice (Effect Example 6); type: in vivo; conditions: 1 mg/kg i.g., 30 μL xylene one hour after administration; for Swelling degree: mean±SD
Method: ICR mice, body weight 18 g-22 g, half of them being male and the other half being female, provided by the Department of Laboratory Animals, Peking University. The animals were raised in a standard environment: temperature 23±1° C., relative humidity 55±5%, light-dark cycle 12 h/12 h, and fed with standard pellet feed.
Mice were randomly divided into 5 groups, 8 mice per group, half of them being male and the other half being female. Vehicle control group (double-distilled water, i.g.), dexamethasone control group (2 mg/kg, i.g.), compound DXL-A-22 group (1 mg/kg, i.g.), and compound DXL-A-24 group (1 mg/kg, i.g.) were set. All drugs were dissolved in double-distilled water before administration, and given by intragastric administration at 0.1 mL/10 g. One hour after administration, 30 μL of xylene was evenly smeared on the inner and outer sides of right ear of mouse to cause inflammation. After 0.5 hour, the left and right ears of mouse were cut, and circular ear pieces of the same size were punched at the same position on the left and right ears using the punch (diameter 6 mm) respectively, and weighed for the weights of the left and right ear pieces. The difference between the weight of the right ear after applying xylene and the weight of the left ear without applying xylene was used as swelling degree index (i.e., swelling degree). The swelling degree was calculated according to formula (1). The intensity of anti-inflammatory effect was expressed as inhibition rate (%), and the inhibition rate (%) was calculated according to formula (2).
Swelling degree=weight of right ear piece−weight of left ear piece (1)
Inflammation inhibition rate (%)=(ear swelling degree in vehicle control group−ear swelling degree in drug group)/ear swelling degree in vehicle control group×100% (2)

ICR mice [3] = assay: Hot plate test; type: in vivo; conditions: Mus musculus, po; 1 mg/kg intragastric, latency 2.0 hours after administration, hot plate 55° C.; read-out: PTE %
Method: as §1
The temperature of hot plate was adjusted to 55° C., and the responses of mouse such as licking hind feet and jumping were used as the observation indexes. The time from the placement of mice on copper plate to the appearance of the above responses was defined as latency time. The latency time was measured for three times 30 minutes before administration, and the average value thereof was used as basic threshold, or baseline latency (BL). The animals with a latency time greater than 15 s and less than 5 s were removed, and the residual mice were randomly grouped, 8 animals per group.
Vehicle control group (double-distilled water) and groups for samples to be tested (the compounds and doses thereof were shown in Table 1) were set. All drugs were dissolved in […] before administration, and given by intragastric administration. The latency time was measured 2.0 hours after administration. Percentage of Pain Threshold Elevated Rate (PTE %) of compound on mice was calculated according to the following formula:
PTE %=(latency time of test group−latency time of vehicle control group)/latency time of vehicle control group×100

[4] = 2 mg/kg i.g. daily, Day 5 after operation, section 3.2
[5] = 2 mg/kg i.g. daily, Day 7 after operation, section 3.2
[6] = 2 mg/kg i.g. daily, Day 14 after operation, section 3.2
[7] = 1 mg/kg i.g. daily, Day 5 after operation, section 3.4
[8] = 1 mg/kg i.g. daily, Day 7 after operation, section 3.4
[9] = 1 mg/kg i.g. daily, Day 14 after operation, section 3.4

`Br.Brc1ccc(N2CC[N+]3(CCCC3)CC2)cc1` [DXL-A-22, 8-(4-bromophenyl)-5,8-diazaspiro[4.5]decan-5-ium bromide] was tested, and the inhibition in vivo at 1 mg/kg (ICR mice [1]) was 47%, the PWL (CCI rats; [4]) was 10.84 ± 0.32**/ and the “MPE(%)” value (CCI rats; [4]) was 51.61%. For the same compound, the PWL (CCI rats; [5]) was 11.28 ± 0.64**/, the “MPE(%)” value (CCI rats; [5]) was 58.91% and the PWL (CCI rats; [6]) was 11.19 ± 0.52**/. For the same compound, the “MPE(%)” value (CCI rats; [6]) was 55.61%, the “Inhibition rate (%)” value (ICR mice [2]) was 42.62% and the “Swelling degree” value (ICR mice [2]) was 5.48 ± 0.16 mg. For the same compound, the change in vivo at 1 mg/kg (ICR mice [3]) was 52.6%.
`FC(F)(F)c1ccc(N2CC[N+]3(CCCC3)CC2)cc1.[Br-]` [DXL-A-24, 8-(4-(trifluoromethyl)phenyl)-5,8-diazaspiro[4.5]decan-5-ium bromide] was tested, and the inhibition in vivo at 1 mg/kg (ICR mice [1]) was 53.4%, the PWL (CCI rats; [7]) was 11.29 ± 0.57**/ and the “MPE(%)” value (CCI rats; [7]) was 52.62%. For the same compound, the PWL (CCI rats; [8]) was 12.35 ± 0.55**/, the “MPE(%)” value (CCI rats; [8]) was 72.36% and the PWL (CCI rats; [9]) was 13.26 ± 0.43**/. The “MPE(%)” value (CCI rats; [9]) was 88.79%, the “Inhibition rate (%)” value (ICR mice [2]) was 51.41% and the “Swelling degree” value (ICR mice [2]) was 4.64 ± 0.11 mg. It also gave a change in vivo at 1 mg/kg (ICR mice [3]) of 48.6%.
